PMC11364104, “Discovery of SARS-CoV-2 papain-like protease (PL^pro) inhibitors with efficacy in a murine infection model” (Science Advances, 2024)
Read-outs that look alike come from different tables or passages of the source.

Columns and labels:
[1] = system: SARS-CoV-2 strain USA-WA1/2020; assay: dNHBE (human airway epithelial) cell infection model; type: cell-based; settings: Severe acute respiratory syndrome coronavirus 2, Epithelial cell; dNHBE (human airway epithelial) cells; plaque assay 3 dpi
Dog pharmacokinetics = type: in vivo, Beagle dog; settings: for Vd: read-out: Vdss
Protocol: from Vital River (Beijing, China) and were typically 7-9 weeks of age at the time of dosing.
During the pharmacokinetic studies all animals were housed individually. Access to food and water was provided ad libitum (i.e., subjects were dosed in the fed state). In the instances where oral (po) dose was administered in the fed state, with ad libitum access to food and water. Compounds were administered intravenously (iv) via the tail vein (n = 2) dosed as a solution (1 mg/kg, 3 ml/kg) or via oral gavage as a solution (10 mg/kg, 10 ml/kg). Dosing solutions were prepared immediately before dosing. The composition of each dosing vehicle […]
Serial blood samples were collected via the jugular vein cannula at predetermined timepoints after dosing. Animals were monitored for pain or distress throughout the study, with at least daily monitoring during normal husbandry prior to study start. At the completion of the study, animals were euthanized by overdose of inhaled carbon dioxide. Blood samples were collected into tubes containing K2EDTA and stored on ice until centrifugation to obtain plasma, which was stored frozen at - 20 °C or lower.
Dog pharmacokinetic studies were done at Pfizer (Groton, CT). All procedures performed on beagle dogs were in accordance with regulations and established guidelines and were reviewed and approved by an Institutional Animal Care and Use Committee through an ethical review process. Male Beagle dogs were purchased from Marshall Bioresources (North Rose, NY); subjects 3 years of age were used in pharmacokinetics studies. For each study (n=2), compounds were dosed iv by cephalic vein as a solution (0.5 mg/kg, 1 mL/kg) or via oral gavage as a suspension (3 mg/kg, 5 mL/kg). In the instances where oral (po) dose was administered in the fed state, dogs were fed a couple hours before dosing. In the instances where the IV dose was administered in the fasted state, dogs were fasted over night and fed 4 hours post dose. Subjects were monitored for pain or distress throughout the study followed by at least daily monitoring while off study. The iv dosing vehicle was optimized such that the compounds were in solution and stable for at least 24 h. Serial blood samples were collected via the jugular vein at predefined time points post-dose. Blood samples were collected into K3EDTA treated collection tubes and were stored on wet ice prior to being centrifuged to obtain plasma, which was stored frozen at - 20 °C or lower.
Monkey pharmacokinetic studies were conducted at Pfizer (Groton, CT). All procedures performed on Cynomolgus monkeys were in accordance with regulations and established guidelines and were reviewed and approved by an Institutional Animal Care and Use Committee through an ethical review process. Male Cynomolgus monkeys were purchased from Envigo Global Services (Indianapolis, IN); subjects 5-8 years of age were used in pharmacokinetic studies. For each study (n=2), compounds were dosed iv by the cephalic vein (typically 1 mg/kg, 2 ml/kg). Subjects were monitored for pain or distress throughout the study followed by at least daily monitoring while off study. The iv dosing vehicle was optimized such that the compounds were in solution and stable for at least 24 h.
Serial blood samples were collected via the femoral vein at predefined time points post-dose. Blood samples were collected into K3EDTA treated collection tubes and were stored on wet ice prior to being centrifuged to obtain plasma, which was stored frozen at -20 °C or […]
LC-MS/MS Analysis of Plasma Samples
Plasma samples were processed using protein precipitation with 50:50 acetonitrile: methanol containing terfenadine (5 ng/ml) as an internal standard followed by quantitation against a standard curve (0.1-1000 ng/ml) prepared in blank plasma. Quantitation of analyte in plasma samples was done using LC-MS/MS. Standard and quality control samples, prepared in blank plasma were extracted in the same manner as the in-life samples. Briefly, a Waters […]

hCoV-OC43_PLpro2 = hCoV-OC43_PLpro2 (Human coronavirus OC43, UniProt P0C6X6); assay: biochemical; set-up: species or system OC43-CoV
Human Thrombin = biological target: T1, Human Thrombin (Homo sapiens, UniProt P00734); assay: biochemical
T1 construct: assay run at Reaction Biology Corporation

Human Cathepsin V = biological target: T2, Human Cathepsin V (Homo sapiens, UniProt O60911); assay: biochemical
T2 construct: assay run at Reaction Biology Corporation

Human Cathepsin F = biological target: T3, Human Cathepsin F (Homo sapiens, UniProt Q9UBX1); assay: biochemical
T3 construct: assay run at BPS Bioscience

[2] = biological target: Human Immunodeficiency Virus-1 protease (Human immunodeficiency virus type 1 group M subtype B, UniProt P04585); assay: biochemical
Human Elastase = biological target: T4, Human Elastase (Homo sapiens, UniProt P08246); assay: biochemical
T4 construct: Reaction Biology Corporation (ran the assay as a service)

[3] = biological target: T5, Angiotensin Converting Enzyme (Homo sapiens, UniProt P12821); assay: CEREP enzyme inhibition; type: biochemical
T5 construct: purchased Eurofins Cerep

Acetylcholinesterase = biological target: T6, Acetylcholinesterase (Homo sapiens, UniProt P22303); assay: CEREP enzyme inhibition; type: biochemical
T6 construct: purchased Eurofins Cerep

Cyclooxygenase 2 = biological target: T7, Cyclooxygenase 2 (Homo sapiens, UniProt P35354); assay: CEREP enzyme inhibition; type: biochemical
T7 construct: purchased Eurofins Cerep

Monoamine Oxidase = assay: CEREP enzyme inhibition; type: biochemical; settings: 30 µM
Aurora A Kinase = biological target: T8, Aurora A Kinase (Homo sapiens, UniProt O14965); assay: CEREP kinase inhibition; type: biochemical
T8 construct: purchased Eurofins Cerep

EGFR Kinase = biological target: T9, EGFR Kinase (Homo sapiens, UniProt P00533); assay: CEREP kinase inhibition; type: biochemical
T9 construct: purchased Eurofins Cerep

GABA Transporter = assay: CEREP transporters-binding; settings: 30 µM
L-Type Ca (Diltiazem) = assay: CEREP ion channel-binding; settings: 30 µM
AMPA Receptor = assay: CEREP ion channel-binding; settings: 30 µM
in vitro [4] = settings: mouse, plasma
in vitro [5] = settings: male, cynomolgus monkey, plasma
in vitro [6] = settings: African green monkey, Mean CC50, n=3
CYP2D6 = CYP2D6 (Homo sapiens, UniProt P10635); assay: biochemical
[7] = plasma, Male Beagle Dog, 0.5 mg/kg iv, solution, mean n=2
[8] = plasma, Male Beagle Dog, 3.0 mg/kg po, suspension, mean n=2

hCoV-OC43_PLpro2, sequence (P0C6X6 1631-1892): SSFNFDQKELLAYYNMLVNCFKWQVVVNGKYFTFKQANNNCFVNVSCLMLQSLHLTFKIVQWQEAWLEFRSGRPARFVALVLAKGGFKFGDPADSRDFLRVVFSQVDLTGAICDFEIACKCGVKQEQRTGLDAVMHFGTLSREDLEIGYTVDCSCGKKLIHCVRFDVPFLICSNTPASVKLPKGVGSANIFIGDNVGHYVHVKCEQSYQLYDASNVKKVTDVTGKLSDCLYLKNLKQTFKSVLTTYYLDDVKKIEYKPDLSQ
T5 sequence (P12821 30-1306): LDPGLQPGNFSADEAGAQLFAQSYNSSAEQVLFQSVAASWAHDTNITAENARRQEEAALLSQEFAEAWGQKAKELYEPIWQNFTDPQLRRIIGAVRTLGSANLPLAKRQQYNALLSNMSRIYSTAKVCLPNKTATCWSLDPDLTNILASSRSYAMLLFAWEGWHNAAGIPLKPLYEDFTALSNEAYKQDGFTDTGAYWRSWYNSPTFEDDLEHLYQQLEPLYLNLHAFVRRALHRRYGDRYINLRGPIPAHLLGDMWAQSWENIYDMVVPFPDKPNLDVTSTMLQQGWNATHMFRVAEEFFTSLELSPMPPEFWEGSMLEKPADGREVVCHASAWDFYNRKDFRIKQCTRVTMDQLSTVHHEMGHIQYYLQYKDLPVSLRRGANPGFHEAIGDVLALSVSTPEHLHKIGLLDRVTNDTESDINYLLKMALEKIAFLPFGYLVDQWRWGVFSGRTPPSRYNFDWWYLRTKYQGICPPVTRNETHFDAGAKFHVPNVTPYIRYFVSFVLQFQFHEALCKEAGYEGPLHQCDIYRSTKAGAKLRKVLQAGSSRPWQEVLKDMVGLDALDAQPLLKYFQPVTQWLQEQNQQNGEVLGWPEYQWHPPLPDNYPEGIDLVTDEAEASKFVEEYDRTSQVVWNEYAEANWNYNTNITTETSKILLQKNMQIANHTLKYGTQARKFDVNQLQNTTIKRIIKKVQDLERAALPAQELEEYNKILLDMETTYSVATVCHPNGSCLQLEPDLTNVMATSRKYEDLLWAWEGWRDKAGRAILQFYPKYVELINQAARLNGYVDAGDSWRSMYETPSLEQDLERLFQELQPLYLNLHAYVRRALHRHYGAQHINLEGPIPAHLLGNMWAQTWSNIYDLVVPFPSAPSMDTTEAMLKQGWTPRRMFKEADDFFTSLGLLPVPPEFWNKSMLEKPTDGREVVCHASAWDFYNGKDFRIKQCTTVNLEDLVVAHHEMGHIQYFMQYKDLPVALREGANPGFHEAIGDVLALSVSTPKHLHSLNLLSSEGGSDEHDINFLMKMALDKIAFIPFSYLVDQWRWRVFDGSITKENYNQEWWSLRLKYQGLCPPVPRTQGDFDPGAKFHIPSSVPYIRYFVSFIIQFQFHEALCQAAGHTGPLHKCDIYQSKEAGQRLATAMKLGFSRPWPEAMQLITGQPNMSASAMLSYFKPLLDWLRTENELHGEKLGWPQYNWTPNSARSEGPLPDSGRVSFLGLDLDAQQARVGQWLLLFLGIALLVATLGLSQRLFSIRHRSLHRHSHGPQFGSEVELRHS
T9 sequence (P00533 25-1210): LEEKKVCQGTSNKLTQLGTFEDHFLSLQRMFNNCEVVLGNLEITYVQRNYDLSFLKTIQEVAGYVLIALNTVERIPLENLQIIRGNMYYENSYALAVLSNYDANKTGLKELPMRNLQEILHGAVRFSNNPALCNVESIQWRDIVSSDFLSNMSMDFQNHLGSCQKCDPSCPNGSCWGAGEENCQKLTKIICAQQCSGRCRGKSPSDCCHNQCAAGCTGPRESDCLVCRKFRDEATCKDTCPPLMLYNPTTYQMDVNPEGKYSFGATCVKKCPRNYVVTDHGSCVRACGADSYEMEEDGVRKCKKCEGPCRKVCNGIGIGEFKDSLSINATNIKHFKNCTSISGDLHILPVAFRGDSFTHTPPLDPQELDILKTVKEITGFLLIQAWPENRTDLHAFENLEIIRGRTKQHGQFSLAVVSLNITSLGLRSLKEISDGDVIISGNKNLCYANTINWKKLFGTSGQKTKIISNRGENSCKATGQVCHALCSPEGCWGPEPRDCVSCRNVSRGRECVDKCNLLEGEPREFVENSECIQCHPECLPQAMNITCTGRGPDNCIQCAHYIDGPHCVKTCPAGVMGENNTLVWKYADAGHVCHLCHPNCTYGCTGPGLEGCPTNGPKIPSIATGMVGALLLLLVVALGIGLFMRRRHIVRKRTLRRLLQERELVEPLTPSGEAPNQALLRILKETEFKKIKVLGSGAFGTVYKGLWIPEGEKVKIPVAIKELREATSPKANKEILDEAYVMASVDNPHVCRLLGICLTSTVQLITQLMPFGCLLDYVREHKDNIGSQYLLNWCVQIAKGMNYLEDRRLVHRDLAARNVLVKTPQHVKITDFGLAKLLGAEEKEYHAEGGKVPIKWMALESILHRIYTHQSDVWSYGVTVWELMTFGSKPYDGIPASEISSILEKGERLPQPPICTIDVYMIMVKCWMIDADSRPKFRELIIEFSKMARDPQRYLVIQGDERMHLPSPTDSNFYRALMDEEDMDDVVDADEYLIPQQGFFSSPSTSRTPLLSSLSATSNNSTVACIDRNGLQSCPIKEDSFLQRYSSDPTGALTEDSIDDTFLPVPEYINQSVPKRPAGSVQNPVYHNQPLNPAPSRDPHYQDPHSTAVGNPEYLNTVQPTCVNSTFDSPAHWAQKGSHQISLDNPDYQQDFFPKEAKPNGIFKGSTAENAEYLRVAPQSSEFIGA
T3 sequence (Q9UBX1 271-484): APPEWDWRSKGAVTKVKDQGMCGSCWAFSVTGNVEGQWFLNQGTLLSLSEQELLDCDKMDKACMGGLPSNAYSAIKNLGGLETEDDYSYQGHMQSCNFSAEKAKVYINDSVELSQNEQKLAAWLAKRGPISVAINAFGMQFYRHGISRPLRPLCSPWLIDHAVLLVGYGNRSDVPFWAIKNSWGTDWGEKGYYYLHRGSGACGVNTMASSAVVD
T6 sequence (P22303 32-614): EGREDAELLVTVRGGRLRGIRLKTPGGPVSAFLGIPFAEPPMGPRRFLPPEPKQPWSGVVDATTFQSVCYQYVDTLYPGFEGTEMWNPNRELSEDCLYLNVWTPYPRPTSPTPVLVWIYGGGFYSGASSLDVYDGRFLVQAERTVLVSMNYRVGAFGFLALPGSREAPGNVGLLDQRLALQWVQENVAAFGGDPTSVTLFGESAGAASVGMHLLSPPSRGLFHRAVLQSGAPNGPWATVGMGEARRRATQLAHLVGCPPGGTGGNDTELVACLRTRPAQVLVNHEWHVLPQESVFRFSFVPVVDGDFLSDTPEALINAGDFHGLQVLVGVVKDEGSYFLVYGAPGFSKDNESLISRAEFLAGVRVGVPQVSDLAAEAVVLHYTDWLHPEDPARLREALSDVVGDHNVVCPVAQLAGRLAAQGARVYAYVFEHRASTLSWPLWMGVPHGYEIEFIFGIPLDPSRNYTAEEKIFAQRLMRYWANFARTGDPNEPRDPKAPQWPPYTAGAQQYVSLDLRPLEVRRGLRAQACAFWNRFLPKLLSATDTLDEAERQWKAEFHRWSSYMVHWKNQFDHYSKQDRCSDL
T7 sequence (P35354 18-604): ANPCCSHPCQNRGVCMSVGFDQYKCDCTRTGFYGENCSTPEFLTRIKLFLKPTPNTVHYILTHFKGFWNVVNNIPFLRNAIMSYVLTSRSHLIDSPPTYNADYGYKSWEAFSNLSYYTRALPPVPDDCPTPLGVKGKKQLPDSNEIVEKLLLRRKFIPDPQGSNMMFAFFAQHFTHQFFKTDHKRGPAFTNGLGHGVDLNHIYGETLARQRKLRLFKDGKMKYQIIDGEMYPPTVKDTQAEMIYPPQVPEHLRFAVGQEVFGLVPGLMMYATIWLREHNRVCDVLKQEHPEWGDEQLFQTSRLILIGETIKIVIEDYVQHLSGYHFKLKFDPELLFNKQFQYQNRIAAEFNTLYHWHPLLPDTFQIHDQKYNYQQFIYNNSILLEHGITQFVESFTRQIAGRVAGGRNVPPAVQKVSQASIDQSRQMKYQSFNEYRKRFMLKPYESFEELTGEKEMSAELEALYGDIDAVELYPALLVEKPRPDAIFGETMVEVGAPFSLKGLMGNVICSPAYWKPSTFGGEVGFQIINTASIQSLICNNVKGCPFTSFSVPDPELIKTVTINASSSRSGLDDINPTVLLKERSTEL
T2 sequence (O60911 114-334): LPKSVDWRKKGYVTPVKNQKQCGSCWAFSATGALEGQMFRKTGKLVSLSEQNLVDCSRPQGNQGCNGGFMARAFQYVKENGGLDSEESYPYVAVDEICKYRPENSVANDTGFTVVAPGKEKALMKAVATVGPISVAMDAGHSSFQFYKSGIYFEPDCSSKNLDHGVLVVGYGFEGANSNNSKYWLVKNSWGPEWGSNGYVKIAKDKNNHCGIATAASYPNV
CYP2D6, sequence (P10635 whole entry): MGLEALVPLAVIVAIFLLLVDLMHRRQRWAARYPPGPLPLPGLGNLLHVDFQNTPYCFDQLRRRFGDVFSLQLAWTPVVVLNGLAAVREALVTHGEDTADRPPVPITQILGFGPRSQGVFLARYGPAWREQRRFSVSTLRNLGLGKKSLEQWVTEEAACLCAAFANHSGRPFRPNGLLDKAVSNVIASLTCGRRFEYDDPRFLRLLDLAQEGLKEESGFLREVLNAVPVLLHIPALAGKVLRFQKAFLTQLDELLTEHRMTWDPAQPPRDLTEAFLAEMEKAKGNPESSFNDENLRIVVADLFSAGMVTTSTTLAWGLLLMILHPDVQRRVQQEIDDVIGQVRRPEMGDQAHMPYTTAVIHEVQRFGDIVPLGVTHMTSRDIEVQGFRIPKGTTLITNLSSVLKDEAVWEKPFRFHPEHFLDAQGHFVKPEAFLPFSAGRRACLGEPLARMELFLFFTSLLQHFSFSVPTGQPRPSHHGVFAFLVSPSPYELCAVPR

SMILES: Cc1ccc(N2CCN(C)CC2)cc1C(=O)NC1(c2cc(-c3cnn(C)c3)nc3ccccc23)CC1 [Compound 4]
- EC50 [1]: 0.0139 µM
- EC90 [1]: 0.0567 µM
- Oral F (Dog pharmacokinetics; Male Beagle Dog, 3.0 mg/kg po, suspension, mean n=2): 41.0%
- Vd (Dog pharmacokinetics; male, Beagle, plasma, 0.5 mg/kg, dog (d), intravenous): 1.59 L/kg
- bioavailability (Dog pharmacokinetics; male, Beagle, plasma, po, 3 mg/kg, dog (d), read-out: Oral F (%)): 41%
- AUC(0-inf) (Dog pharmacokinetics; [7]): 640 ng·h/mL
- half-life (Dog pharmacokinetics; [7]): 2.06 h
- clearance (Dog pharmacokinetics; plasma, Male Beagle Dog, 0.5 mg/kg iv, solution, mean n=2, read-out: CLp): 13.4 mL/min/kg
- Vd (Dog pharmacokinetics; [7]): 1.59 L/kg
- AUC(0-inf) (Dog pharmacokinetics; [8]): 1580 ng·h/mL
- Cmax (Dog pharmacokinetics; [8]): 354 ng/mL
- Tmax (Dog pharmacokinetics; [8]): 1 h
- half-life (Dog pharmacokinetics; [8]): 2.52 h
- Ki (hCoV-OC43_PLpro2): > 10 µM
- activity on OC43 PL^pro (hCoV-OC43_PLpro2): nearly inactive
- IC50 (Human Thrombin): > 100 µM
- IC50 (Human Cathepsin V): > 100 µM
- IC50 (Human Cathepsin F): > 100 µM
- IC50 [2]: > 100 µM
- IC50 (Human Elastase): > 100 µM
- inhibition at 30 µM [3]: 14%
- inhibition at 30 µM (Acetylcholinesterase): 17%
- inhibition at 30 µM (Cyclooxygenase 2): 36%
- % inhibition (Monoamine Oxidase): 16%
- inhibition at 30 µM (Aurora A Kinase): -1%
- inhibition at 30 µM (EGFR Kinase): 9%
- % inhibition (GABA Transporter): -4%
- % inhibition (L-Type Ca (Diltiazem)): 10%
- % inhibition (AMPA Receptor): 13%
- fraction unbound (in vitro [4]): 0.093
- fraction unbound (in vitro [5]): 0.101
- CC50 (in vitro [6]): 69.3 µM
- IC50 (CYP2D6): > 30 µM
